Measurements: patent US20240082279A1, “COMPOSITIONS AND METHODS FOR PREVENTING AND/OR TREATING SCARS” (L'Oreal, priority 2022, published 2024)

Assays:
Format in all cases: cell-based, human
[1] = test system: laser wounded reconstructed skin (SoftSkin™); assay: H&E histology of laser wounded reconstructed skin (SoftSkin™); settings: SoftSkin™ model after CO2 laser; 10 uL working solution topically every 24 hours, Day 0 to Day 2; sections Day 0, 2, 4; FIG. 2
Experimental: (§1) Surgical skin samples were be taken from adults and subjected to the 0.25% trypsin dermis/epidermis separation method described in Rheinwald to obtain suspensions of normal human keratinocytes (NHK) and dermal fibroblasts. See Rheinwald J. G., Green H.: Serial cultivation of strains of human epidermal keratinocytes: The formation of keratinizing colonies from single cells. Cell. 6(3):331-43. 1975. The separated normal human dermal fibroblasts were cultured in DMEM+10% fetal calf serum. The fibroblasts were cast onto a lower layer of proto-SoftSkin™ gel. A full-thickness dermal layer equivalent was obtained after contraction of a mixture of Collagen Type I and human normal fibroblasts. The separated normal human keratinocyte cell cultures were initiated using the 3T3 feeder-layer technique described in Rheinwald J. G., Green H.: Epidermal growth factor and the multiplication of cultured human epidermal keratinocytes. Nature 265:421-424 (1977). The separated normal human keratinocytes were seeded on a lattice on the top layer of a proto-SoftSkin™ gel and the culture was left for 7 days in submerged conditions at 37° C. in the presence of 5% carbon dioxide in MEM containing 10% fetal calf serum, allowing the cells to proliferate and form an epidermal layer. Then, the culture was raised upwards to air-liquid interface for an additional 7 days to grow reconstructed skin models (SoftSkin™). […]

Filaggrin = Filaggrin immunofluorescence staining in laser wounded reconstructed skin; settings: 3% in 3% propylene glycol, Day 2 SoftSkin™ after CO2 laser, vs laser alone, laser+vehicle and untreated control, FIG. 4
Experimental: as §1

Ki67 = Ki67 immunofluorescence staining in laser wounded reconstructed skin; settings: 3% in 3% propylene glycol, Day 2 SoftSkin™ after CO2 laser, vs laser alone, laser+vehicle and untreated control, FIG. 6
Experimental: as §1

α-SMA = α-SMA ELISA of lysed reconstructed skin tissue; settings: 3% in 3% propylene glycol, Day 2 SoftSkin™ after CO2 laser, vs laser treated tissues not further treated, FIG. 8
Experimental: Surgical skin samples were be taken from adults and subjected to the 0.25% trypsin dermis/epidermis separation method described in Rheinwald to obtain suspensions of normal human keratinocytes (NHK) and dermal fibroblasts. See Rheinwald J. G., Green H.: Serial cultivation of strains of human epidermal keratinocytes: The formation of keratinizing colonies from single cells. Cell. 6(3):331-43. 1975. The separated normal human dermal fibroblasts were cultured in DMEM+10% fetal calf serum. The fibroblasts were cast onto a lower layer of proto-SoftSkin™ gel. A full-thickness dermal layer equivalent was obtained after contraction of a mixture of Collagen Type I and human normal fibroblasts. […]
Punched Day 2 normal human tissue cultures tissues were submerged with Tissue Lysis Buffer (R&D Systems) and cryogenically ground 3 times, and further lysed on ice for 30 minutes. […] Aliquots of the supernatant were removed and stored at −80° C. until assayed. α-SMA concentration in ECM was determined using a BCA protein array kit (Absin, abs9232-500) and normalized before ELISA assay (alpha SMA Human ELISA Kit #Abcam, ab240678). […]
(§2) Each experiment in Examples 2-5 was replicated three times. For immunostaining study, one cryosection per replicate and 4 fluorescence images/section were taken for data analysis. […]

DKK-1 = DKK-1 secretion, Luminex Assay of medium supernatant from reconstructed skin; settings: 3% in 3% propylene glycol, day 1 SoftSkin™ after CO2 laser, vs laser alone, laser+vehicle, untreated control
Experimental: Surgical skin samples were be taken from adults and subjected to the 0.25% trypsin dermis/epidermis separation method described in Rheinwald to obtain suspensions of normal human keratinocytes (NHK) and dermal fibroblasts. See Rheinwald J. G., Green H.: Serial cultivation of strains of human epidermal keratinocytes: The formation of keratinizing colonies from single cells. Cell. 6(3):331-43. 1975. The separated normal human dermal fibroblasts were cultured in DMEM+10% fetal calf serum. The fibroblasts were cast onto a lower layer of proto-SoftSkin™ gel. A full-thickness dermal layer equivalent was obtained after contraction of a mixture of Collagen Type I and human normal fibroblasts. The separated normal human keratinocyte cell cultures were initiated using the 3T3 feeder-layer technique described in Rheinwald J. G., Green H.: Epidermal growth factor and the multiplication of cultured human epidermal keratinocytes. Nature 265:421-424 (1977). The separated normal human keratinocytes were seeded on a lattice on the top layer of a proto-SoftSkin™ gel and the culture was left for 7 days in submerged conditions at 37° C. in the presence of 5% carbon dioxide in MEM containing 10% fetal calf serum, allowing the cells to proliferate and form an epidermal layer. Then, the culture was raised upwards to air-liquid interface for an additional 7 days to grow reconstructed skin models (SoftSkin™).
The reconstructed skin samples derived from normal human dermal fibroblasts and normal human keratinocytes were subjected to CO2 laser treatment. […]
Medium supernatant was collected from the reconstructed skin samples. DKK-1 secretions were measured using a Luminex Assay (R&D Systems) in a panel following the manufacturer's guidelines. […]
as §2, with “analysis. All the data were statistically analyzed by Graph Pad Prism and presented as mean±standard deviation unless otherwise specified.” for “analysis.”

Molecule	Keratinocyte invasion of laser dermal injury sites (H&E stained cross-sections) [1]	Filaggrin expression (relative fluorescence intensity, Image J) (Filaggrin)	Filaggrin expression (relative fluorescence intensity, Image J) (Filaggrin; listed as C-glycoside)	Ki67 expression (ratio of Ki67 positive cells/total cell number in basal layer) (Ki67)	Ki67 expression (ratio of Ki67 positive cells/total cell number in basal layer) (Ki67; listed as C-glycoside)	α-SMA expression (α-SMA)	α-SMA expression (α-SMA; listed as C-glycoside)	DKK-1 secretion/expression (DKK-1; FIG. 7)	DKK-1 secretion/expression (DKK-1; FIG. 7, listed as C-glycoside)	DKK-1 secretion/expression (DKK-1; FIG. 7, listed as Proxylane)
CC(O)C[C@@H]1OC[C@@H](O)[C@H](O)[C@H]1O (stereo partly drawn) [Hydroxypropyl tetrahydropyrantriol, C13-D-xylopyranoside2-hydroxypropane]	Keratinocytes invaded laser dermal injury sites	increased Filaggrin expression	significantly higher level	increased Ki67 expression	significantly higher level	reduced α-SMA expression in a statistically significant manner	reduced the level of α-smooth muscle actin in laser wounded skin in a statistically significant manner	enhanced expression of DKR-1	restored DKK-1 secretion to a level similar to control	enhancing the expression of DKK-1
hyaluronic acid [reference compound]	not									
